Source: patent publication US20090137652A1, “METHODS FOR NEUROPROTECTION” (priority 2005, published 2009)
Values joined by “and” are separate entries in the source; they are usually repeats but may differ in a detail not shown here. Equal entries are not always repeated. Marks after values point to notes of the source that are not given here.

Assays:
Type in all cases: in vivo, rat
[1] = tested on: rats subjected to Li-pilo induced SE; test: Quantification of cell densities after lithium-pilocarpine SE (Example 1); settings: for cell loss, CA1 pyramidal layer: significant vs pilo-DZP
Description: The effects of increasing doses of the test compound were studied on 3 groups of rats. The animals of the first group received 10 mg/kg of the test compound, i.p., 1 h after the onset of SE (pilo-TC10) while the animals of groups 2 and 3 received 30 and 60 mg/kg of the test compound (pilo-TC30 and pilo-TC60), respectively.
Another group was injected with 2 mg/kg diazepam (DZP, i.m.) at 1 h after the onset of SE. This is a standard treatment to improve animals survival after SE (pilo-DZP). The control group received saline instead of pilocarpine and the test compound (saline-saline). The pilo-test compound rats surviving SE were then injected about 10 h after the first test compound injection with a second i.p. injection of the same dose of the test compound and were maintained under a twice daily treatment with the test compound for 6 additional days. Pilo-DZP received a second injection of 1 mg/kg DZP on the day of SE at about 10 h after the first one. Thereafter, Pilo-DZP and saline-saline rats received twice daily an equivalent volume of saline.
Quantification of cell densities was performed at […] after SE on 8 pilo-DZP, 8 pilo-TC10, 7 pilo-TC30, 7 pilo-TC60, and 6 saline-saline rats. At 14 days after SE, animals were deeply anesthetized with […] pentobarbital (Dolethal®, Vetoquinol, Lure, France. Brains were then removed and frozen. Serial 20 μm slices were cut in a cryostat, air-dried during several days before thionine staining.
Quantification of cell densities was performed with a 10×10 boxes 1 cm^2 microscopic grid on coronal sections according to the stereotaxic coordinates of the rat brain atlas (Paxinos and Watson, 1986, The Rat brain in Stereotaxic Coordinates, 2nd ed. Academic Press, San Diego). Cell counts were performed twice in a blind manner and were the average of at least 3 values from 2 adjacent sections in each individual animal. Counts involved only cells larger than 10 μm, smaller ones being considered as glial cells.
For the comparison of the characteristics of SE in pilo-saline and pilo-test compound animals, a non-paired Student's t-test was used. The comparison between the number of rats seizing in both groups was performed by means of a Chi square test. For neuronal damage, statistical analysis between groups was performed using ANOVA followed by a Fisher's test for multiple comparisons using the Statview software (Fisher R A, 1946a, Statistical Methods for Research Workers (10th edition) Oliver & Boyd, Edinburgh; Fisher R A, 1946b, The Design of Experiments (4th edition) Oliver & Boyd, Edinburgh)

[2] = tested on: rats subjected to li-pilo SE; test: Latency to and frequency of spontaneous seizures by video recording, lithium-pilocarpine model (Example 2)
Description: (§1) All rats received lithium chloride (3 meq/kg, i.p., Sigma, St Louis, Mo., U.S.A.) and about 20 h later, all animals received also methylscopolamine bromide (1 mg/kg, s.c., Sigma) that was administered to limit the peripheral effects of the convulsant. SE was induced by injecting pilocarpine hydrochloride (25 mg/kg, s.c., Sigma) 30 min after methylscopolamine. The effects of increasing doses of TC (RWJ) were studied in 5 groups of rats. […] The control group received vehicle instead of pilocarpine and TC. The rats surviving SE were then injected about 10 h after the first TC injection with a second i.p. injection of 1.25 mg/kg DZP for the DZP group or of the same dose of TC as in the morning and were maintained under a twice daily TC treatment (s.c.) for 6 additional days while DZP rats received a vehicle injection.
The effects of DZP and the 4 doses of TC on epileptogenesis were investigated by daily video recording of the animals for 10 h per day. Video recording was performed for 4 weeks during which the occurrence of the first seizure was noted as well as the total number of seizures over the whole period. Animals were then taken off the video recording system and kept for 4 additional weeks in our animal facilities before they were sacrificed after a total period of 8 weeks of epilepsy.
For neuronal damage and epileptogenesis, statistical analysis between groups was performed by means of a one-way analysis of variance followed by a post-hoc Dunnett or Fisher test using the Statistica software.

[3] = tested on: rats subjected to li-pilo SE; test: Mortality over the first 48 h after lithium-pilocarpine SE (Example 2)
Description: Adult male Sprague-Dawley rats provided by Janvier Breeding Center (Le Genest-St-Isle, France) were housed under controlled, uncrowded standard conditions at 20-22° C. (light/dark cycle, 7.00 a.m.-7.00 p.m. lights on), with food and water available ad libitum. All animal experimentation was performed in accordance with the rules of the European Communities Council Directive of Nov. 24, 1986 (86/609/EEC), and the French Department of Agriculture (License No 67-97).
as §1
A total number of 143 Sprague-Dawley rats weighing 250-330 g were subjected to lithium-pilocarpine (Li-pilo)-induced SE. […] The behavioral characteristics of SE were identical in both li-pilo-DZP and li-pilo-TC groups. Within 5 min after pilocarpine injection, rats developed diarrhea, piloerection and other signs of cholinergic stimulation. […] Recurrent seizures started around 15-20 min after pilocarpine administration. These seizures which associated episodes of head and bilateral forelimb myoclonus with rearing and falling progressed to SE at about 35-40 min after pilocarpine, as previously described (Turski et al., 1989; Dube et al., 2001; Andre et al., 2003). The control group not subjected to SE and receiving lithium and saline was composed of 20 rats.

[4] = pilo-DZP compared to saline-saline rats

Which “cell loss, CA1 region of the hippocampus (pyramidal cell layer)” value [1, 4] does the source give for CN1C(=O)CN=C(c2ccccc2)c2cc(Cl)ccc21 [DZP, diazepam, reference compound] here?
The value was 70% and 75%.

What about the “cell loss, CA3a” value [1, 4] of the same compound?
The value was 54%.

What about the “cell loss, CA3b” value [1, 4] of the same compound?
Its value is 31%.

And the “cell loss, dorsal entorhinal cortex layer II” value [1, 4]?
Its value is 9%.

What about the “cell loss, dorsal entorhinal cortex layers III-IV” value [1, 4] of the same compound?
The value was 15%.

And the “cell loss, hilus of the dentate gyrus” value [1, 4]?
The value was 73%.

And the “cell loss, lateral thalamic nucleus” value [1, 4]?
The value was 91%.

What about the “cell loss, mediodorsal thalamic nucleus” value [1, 4] of the same compound?
The value was 56%.

And the “cell loss, piriform cortex layer II” value [1, 4]?
Its value is 53%.

And the “cell loss, piriform cortex layers III-IV” value [1, 4]?
Its value is “total”.

And the “cell loss, ventral entorhinal cortex layer II” value [1, 4]?
Its value is “totally preserved”.

And the “cell loss, ventral entorhinal cortex layers III-IV” value [1, 4]?
Its value is 44%.

And the “frequency of spontaneous seizures over four weeks of recording” value (“frequency … over four weeks of recording” for short) ([2]; DZP and TC30 groups)?
The value was “tendency to be higher”.

What about the “Latency to the first spontaneous seizure” value ([2]; DZP, 14 animals) of the same compound?
Its value is 15.5 ± 2.3 days and 15.5 ± 2.34 days.

What about the “degree of mortality over the first 48 h after SE” value ([3]; DZP 2.5 mg/kg i.m., group devoted to cell counting at 14 days, 4/11) of the same compound?
Its value is 36%.

And the “degree of mortality over the first 48 h after SE” value ([3]; DZP 2.5 mg/kg i.m., group devoted to latency to SRS and late cell counting, 1/14)?
The value was 7%.

Which “neuroprotection compared to pilo-DZP rats, ventral entorhinal cortex layers III-IV” value ([1]; TC60 (60 mg/kg)) does the source give for NC(=O)OC[C@@H](O)c1ccccc1Cl [Formula 7] here?
Its value is 31%.

And the “reduction of neuronal damage recorded in pilo-DZP rats, piriform cortex layer II” value ([1]; TC60 (60 mg/kg))?
Its value is 41%.

And the “reduction of neuronal damage recorded in pilo-DZP rats, piriform cortex layers III-IV” value ([1]; TC60 (60 mg/kg))?
The value was 44%.

What about the “more damage (worsening of cell loss) compared with pilo-DZP rats, dorsal entorhinal cortex layers III-IV” value ([1]; pilo-TC10 (10 mg/kg)) of the same compound?
The value was 28%.

What about the “more damage (worsening of cell loss) compared with pilo-DZP rats, ventral entorhinal cortex layers III-IV” value ([1]; pilo-TC10 (10 mg/kg)) of the same compound?
The value was 35%.

And the “cell loss, CA1 pyramidal layer” value ([1]; pilo-TC30 (30 mg/kg))?
The value was 35%.

And the “cell loss, CA1 pyramidal layer” value ([1]; pilo-TC60 (60 mg/kg))?
Its value is 16%.

What about the “cell loss, hilus of the dentate gyrus” value ([1]; pilo-test compound animals (10, 30, 60 mg/kg)) of the same compound?
Its value is 69-72%.

And the “reduction of neuronal damage, lateral thalamic nucleus” value ([1]; test compound 60 mg/kg)?
The value was 65%.

And the “reduction of neuronal damage, mediodorsal thalamic nucleus” value ([1]; test compound 60 mg/kg)?
Its value is 42%.

What about the “protection in CA3b” value ([1]; test compound 60 mg/kg vs pilo-DZP) of the same compound?
Its value is “significantly neuroprotective”.

And the “protection in the CA3a area” value ([1]; test compound 10, 30, 60 mg/kg vs pilo-DZP)?
Its value is “did not afford any protection”.

What about the “frequency … over four weeks of recording” value ([2]; DZP and TC30 groups) of the same compound?
Its value is “tendency to be higher”.

What about the “rats with short latencies to seizures (shorter than 40 days after SE)” value (“rats … (shorter than 40 days after SE)” for short) ([2]; TC 90 mg/kg, 4/11) of the same compound?
Its value is 36%.

What about the “rats … (shorter than 40 days after SE)” value ([2]; TC 120 mg/kg, 1/9) of the same compound?
Its value is 11%.

What about the “latency to epilepsy of the long latency subgroup relative to the short latency” value ([2]; TC 60, 90 and 120 mg/kg, subgroup of 2-4 animals per group) of the same compound?
Its value is 4-6 times.

What about the “frequency … over four weeks of recording” value ([2]; TC60, 90 and 120 groups, significant for total or mean number of seizures over the four weeks) of the same compound?
The value was “lower”.

And the “rats … (shorter than 40 days after SE)” value ([2]; TC at 30 mg/kg (so in the source), 7/10)?
Its value is 70%.

And the “percentage of non-epileptic rats (no seizure over 150 days post-SE)” value ([2]; at both of the two highest doses of TC (90 and 120 mg/kg))?
The value was 45%.

What about the “Latency to the first spontaneous seizure” value ([2]; pilo-TC30 (30 mg/kg), 8 animals, listed as TC) of the same compound?
Its value is 11.6 ± 2.5 days.

What about the “Latency to the first spontaneous seizure” value ([2]; pilo-TC60 (60 mg/kg), Long latency subgroup (n = 3)) of the same compound?
The value was 76.7 ± 15.6 °° days.

What about the “Latency to the first spontaneous seizure” value ([2]; pilo-TC60 (60 mg/kg), Short latency subgroup (n = 7)) of the same compound?
The value was 17.4 ± 5.4 days.

What about the “Latency to the first spontaneous seizure” value ([2]; pilo-TC90 (90 mg/kg), Long latency subgroup (n = 2)) of the same compound?
The value was 52.0 ± 1.0 ° days.

What about the “Latency to the first spontaneous seizure” value ([2]; pilo-TC90 (90 mg/kg), Short latency subgroup (n = 4)) of the same compound?
The value was 14.8 ± 5.7 days.

And the “Latency to the first spontaneous seizure” value ([2]; pilo-TC120 (120 mg/kg), Long latency subgroup (n = 4))?
Its value is 84.5 ± 16.7 °° days.

What about the “Latency to the first spontaneous seizure” value ([2]; pilo-TC120 (120 mg/kg), Non epileptic subgroup (n = 4), no seizure over 150 days post-SE) of the same compound?
Its value is 150** °° days.

And the “Latency to the first spontaneous seizure” value ([2]; pilo-TC120 (120 mg/kg), Short latency subgroup (n = 1))?
Its value is 13.0 days.

What about the “degree of mortality over the first 48 h after SE” value ([3]; TC30 (30 mg/kg i.p.), group devoted to cell counting at 14 days, 4/12) of the same compound?
Its value is 33%.

And the “degree of mortality over the first 48 h after SE” value ([3]; TC30, group devoted to latency to SRS and late cell counting, 3/11)?
The value was 27%.

And the “degree of mortality over the first 48 h after SE” value ([3]; TC60 (60 mg/kg i.p.), group devoted to cell counting at 14 days, 1/12)?
Its value is 8%.

What about the “degree of mortality over the first 48 h after SE” value ([3]; TC60, group devoted to latency to SRS and late cell counting, 0/10) of the same compound?
Its value is 0%.

What about the “degree of mortality over the first 48 h after SE” value ([3]; TC90 (90 mg/kg i.p.), group devoted to cell counting at 14 days, 0/10) of the same compound?
Its value is 0%.

And the “degree of mortality over the first 48 h after SE” value ([3]; TC90, group devoted to latency to SRS and late cell counting, 0/11)?
Its value is 0%.

What about the “degree of mortality over the first 48 h after SE” value ([3]; TC120 (120 mg/kg i.p.), group devoted to cell counting at 14 days, 4/12) of the same compound?
Its value is 33%.

What about the “degree of mortality over the first 48 h after SE” value ([3]; TC120, group devoted to latency to SRS and late cell counting, 0/9) of the same compound?
Its value is 0%.
